Assay results as given in the supplement of paper PMC8612539.

Assays:
Pasteurella multocida = assay: minimum inhibitory concentration (MIC)
Protocol: (§1)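 Broth microdilution MIC (Sensititre BOPO7F bovine plate, CLSI methods) of 19 antimicrobials against field isolates of P. multocida, M. haemolytica, H. somni (deep nasopharyngeal swabs) and E. coli, Enterococcus spp. (rectal swabs) from weaned dairy heifers. Incubation 16-24 h at 35 C. MIC is the lowest concentration preventing visible growth. Values with <= or > lie at the tested range limits. Trimethoprim-sulfamethoxazole is given as the trimethoprim component of a 1:19 mixture.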

Enterococcus spp. = assay: minimum inhibitory concentration (MIC)
Protocol: as §1

[1] = isolate (source animal id): 168
[2] = isolate (source animal id): 169
[3] = isolate (source animal id): 171
[4] = isolate (source animal id): 175
[5] = isolate (source animal id): 177
[6] = isolate (source animal id): 182
[7] = isolate (source animal id): 195
[8] = isolate (source animal id): 197
[9] = isolate (source animal id): 223
[10] = isolate (source animal id): 241
[11] = isolate (source animal id): 247
[12] = isolate (source animal id): 250
[13] = isolate (source animal id): 285
[14] = isolate (source animal id): 290
[15] = isolate (source animal id): 296
[16] = isolate (source animal id): 310

Measured: minimum inhibitory concentration

CO/N=C(\C(=O)N[C@@H]1C(=O)N2C(C(=O)O)=C(CSC(=O)c3ccco3)CS[C@H]12)c1csc(N)n1 [Ceftiofur]
4 µg/mL: Enterococcus spp.; isolate (source animal id): 79 | Enterococcus spp.; isolate (source animal id): 183 | Enterococcus spp.; [8]
1 µg/mL: Pasteurella multocida; [4]
0.5 µg/mL: Enterococcus spp.; isolate (source animal id): 88 | Enterococcus spp.; isolate (source animal id): 91 | Enterococcus spp.; isolate (source animal id): 111 | Enterococcus spp.; isolate (source animal id): 268
2 µg/mL: Enterococcus spp.; isolate (source animal id): 44 | Enterococcus spp.; isolate (source animal id): 239 | Enterococcus spp.; isolate (source animal id): 331 | Enterococcus spp.; isolate (source animal id): 333 | Enterococcus spp.; isolate (source animal id): 341
> 8 µg/mL: Enterococcus spp.; isolate (source animal id): 2 | Enterococcus spp.; isolate (source animal id): 35 | Enterococcus spp.; isolate (source animal id): 92 | Enterococcus spp.; isolate (source animal id): 122 | Enterococcus spp.; isolate (source animal id): 123 | Enterococcus spp.; isolate (source animal id): 133 | Enterococcus spp.; isolate (source animal id): 158 | Enterococcus spp.; [1] | Enterococcus spp.; [2] | Enterococcus spp.; [3] | Enterococcus spp.; [4] | Enterococcus spp.; [5] | Enterococcus spp.; isolate (source animal id): 181 | Enterococcus spp.; [6] | Enterococcus spp.; isolate (source animal id): 187 | Enterococcus spp.; isolate (source animal id): 190 | Enterococcus spp.; isolate (source animal id): 194 | Enterococcus spp.; [7] | Enterococcus spp.; isolate (source animal id): 211 | Enterococcus spp.; isolate (source animal id): 222 | Enterococcus spp.; [9] | Enterococcus spp.; isolate (source animal id): 228 | Enterococcus spp.; isolate (source animal id): 230 | Enterococcus spp.; isolate (source animal id): 235 | Enterococcus spp.; isolate (source animal id): 236 | Enterococcus spp.; [10] | Enterococcus spp.; isolate (source animal id): 244 | Enterococcus spp.; isolate (source animal id): 246 | Enterococcus spp.; [11] | Enterococcus spp.; [12] | Enterococcus spp.; isolate (source animal id): 252 | Enterococcus spp.; isolate (source animal id): 282 | Enterococcus spp.; [13] | Enterococcus spp.; [15] | Enterococcus spp.; [16]
≤ 0.25 µg/mL: Pasteurella multocida; isolate (source animal id): 10 | Pasteurella multocida; isolate (source animal id): 11 | Pasteurella multocida; isolate (source animal id): 12 | Pasteurella multocida; isolate (source animal id): 19 | Pasteurella multocida; isolate (source animal id): 23 | Pasteurella multocida; isolate (source animal id): 26 | Pasteurella multocida; isolate (source animal id): 98 | Pasteurella multocida; isolate (source animal id): 104 | Pasteurella multocida; isolate (source animal id): 115 | Pasteurella multocida; isolate (source animal id): 117 | Pasteurella multocida; isolate (source animal id): 118 | Pasteurella multocida; isolate (source animal id): 121 | Pasteurella multocida; isolate (source animal id): 124 | Pasteurella multocida; isolate (source animal id): 125 | Pasteurella multocida; isolate (source animal id): 128 | Pasteurella multocida; isolate (source animal id): 131 | Pasteurella multocida; isolate (source animal id): 135 | Pasteurella multocida; isolate (source animal id): 136 | Pasteurella multocida; isolate (source animal id): 140 | Pasteurella multocida; isolate (source animal id): 144 | Pasteurella multocida; isolate (source animal id): 146 | Pasteurella multocida; isolate (source animal id): 150 | Pasteurella multocida; isolate (source animal id): 151 | Pasteurella multocida; isolate (source animal id): 153 | Pasteurella multocida; isolate (source animal id): 155 | Pasteurella multocida; isolate (source animal id): 157 | Pasteurella multocida; isolate (source animal id): 160 | Pasteurella multocida; isolate (source animal id): 164 | Pasteurella multocida; isolate (source animal id): 165 | Pasteurella multocida; isolate (source animal id): 167 | Pasteurella multocida; [1] | Pasteurella multocida; [2] | Pasteurella multocida; isolate (source animal id): 170 | Pasteurella multocida; [3] | Pasteurella multocida; isolate (source animal id): 172 | Pasteurella multocida; isolate (source animal id): 173 | Pasteurella multocida; isolate (source animal id): 174 | Pasteurella multocida; isolate (source animal id): 176 | Pasteurella multocida; [5] | Pasteurella multocida; isolate (source animal id): 178 | Pasteurella multocida; isolate (source animal id): 179 | Pasteurella multocida; [6] | Pasteurella multocida; isolate (source animal id): 192 | Pasteurella multocida; isolate (source animal id): 193 | Pasteurella multocida; [7] | Pasteurella multocida; isolate (source animal id): 196 | Pasteurella multocida; [8] | Pasteurella multocida; isolate (source animal id): 198 | Pasteurella multocida; isolate (source animal id): 199 | Pasteurella multocida; isolate (source animal id): 200 | Pasteurella multocida; isolate (source animal id): 201 | Pasteurella multocida; isolate (source animal id): 203 | Pasteurella multocida; isolate (source animal id): 204 | Pasteurella multocida; isolate (source animal id): 205 | Pasteurella multocida; isolate (source animal id): 206 | Pasteurella multocida; isolate (source animal id): 207 | Pasteurella multocida; isolate (source animal id): 208 | Pasteurella multocida; isolate (source animal id): 209 | Pasteurella multocida; isolate (source animal id): 210 | Pasteurella multocida; isolate (source animal id): 213 | Pasteurella multocida; isolate (source animal id): 216 | Pasteurella multocida; [9] | Pasteurella multocida; isolate (source animal id): 227 | Pasteurella multocida; isolate (source animal id): 229 | Pasteurella multocida; isolate (source animal id): 233 | Pasteurella multocida; isolate (source animal id): 234 | Pasteurella multocida; isolate (source animal id): 237 | Pasteurella multocida; [10] | Pasteurella multocida; isolate (source animal id): 245 | Pasteurella multocida; [11] | Pasteurella multocida; [12] | Pasteurella multocida; isolate (source animal id): 254 | Pasteurella multocida; isolate (source animal id): 255 | Pasteurella multocida; isolate (source animal id): 258 | Pasteurella multocida; isolate (source animal id): 261 | Pasteurella multocida; isolate (source animal id): 262 | Pasteurella multocida; isolate (source animal id): 269 | Pasteurella multocida; isolate (source animal id): 270 | Pasteurella multocida; isolate (source animal id): 274 | Pasteurella multocida; isolate (source animal id): 275 | Pasteurella multocida; isolate (source animal id): 276 | Pasteurella multocida; isolate (source animal id): 277 | Pasteurella multocida; isolate (source animal id): 278 | Pasteurella multocida; isolate (source animal id): 279 | Pasteurella multocida; isolate (source animal id): 280 | Pasteurella multocida; isolate (source animal id): 284 | Pasteurella multocida; [13] | Pasteurella multocida; isolate (source animal id): 287 | Pasteurella multocida; [14] | Pasteurella multocida; isolate (source animal id): 294 | Pasteurella multocida; isolate (source animal id): 295 | Pasteurella multocida; [15] | Pasteurella multocida; isolate (source animal id): 307 | Pasteurella multocida; [16] | Pasteurella multocida; isolate (source animal id): 311 | Pasteurella multocida; isolate (source animal id): 312 | Pasteurella multocida; isolate (source animal id): 313 | Pasteurella multocida; isolate (source animal id): 315 | Pasteurella multocida; isolate (source animal id): 316 | Enterococcus spp.; isolate (source animal id): 298
8 µg/mL: Enterococcus spp.; isolate (source animal id): 42 | Enterococcus spp.; isolate (source animal id): 214 | Enterococcus spp.; isolate (source animal id): 289 | Enterococcus spp.; [14] | Enterococcus spp.; isolate (source animal id): 301 | Enterococcus spp.; isolate (source animal id): 320
